This assay deals with T1, human ether-a-go-go-related-gene (hERG)-encoded potassium channel (Homo sapiens, UniProt Q12809).
T1 construct: expressed in transfected cells; host or cells: Human embryonic kidney (HEK) cells, grown under Geneticin G418 selection
Kind of assay: hERG-encoded potassium channel inhibition test (whole-cell patch clamp, tail current). The format is cell-based. Background: hERG is a cardiac potassium channel; its block is linked to QT prolongation.

[1] abbreviates: HEK cells expressing the hERG-encoded channel, tail current after step from +40 mV to -50 mV, room temperature (~20 °C), read-out: IC50.

pIC50: −log10 of the molar value. Like-named read-outs stand apart in the source and are kept apart here.

T1 sequence (Q12809 whole entry): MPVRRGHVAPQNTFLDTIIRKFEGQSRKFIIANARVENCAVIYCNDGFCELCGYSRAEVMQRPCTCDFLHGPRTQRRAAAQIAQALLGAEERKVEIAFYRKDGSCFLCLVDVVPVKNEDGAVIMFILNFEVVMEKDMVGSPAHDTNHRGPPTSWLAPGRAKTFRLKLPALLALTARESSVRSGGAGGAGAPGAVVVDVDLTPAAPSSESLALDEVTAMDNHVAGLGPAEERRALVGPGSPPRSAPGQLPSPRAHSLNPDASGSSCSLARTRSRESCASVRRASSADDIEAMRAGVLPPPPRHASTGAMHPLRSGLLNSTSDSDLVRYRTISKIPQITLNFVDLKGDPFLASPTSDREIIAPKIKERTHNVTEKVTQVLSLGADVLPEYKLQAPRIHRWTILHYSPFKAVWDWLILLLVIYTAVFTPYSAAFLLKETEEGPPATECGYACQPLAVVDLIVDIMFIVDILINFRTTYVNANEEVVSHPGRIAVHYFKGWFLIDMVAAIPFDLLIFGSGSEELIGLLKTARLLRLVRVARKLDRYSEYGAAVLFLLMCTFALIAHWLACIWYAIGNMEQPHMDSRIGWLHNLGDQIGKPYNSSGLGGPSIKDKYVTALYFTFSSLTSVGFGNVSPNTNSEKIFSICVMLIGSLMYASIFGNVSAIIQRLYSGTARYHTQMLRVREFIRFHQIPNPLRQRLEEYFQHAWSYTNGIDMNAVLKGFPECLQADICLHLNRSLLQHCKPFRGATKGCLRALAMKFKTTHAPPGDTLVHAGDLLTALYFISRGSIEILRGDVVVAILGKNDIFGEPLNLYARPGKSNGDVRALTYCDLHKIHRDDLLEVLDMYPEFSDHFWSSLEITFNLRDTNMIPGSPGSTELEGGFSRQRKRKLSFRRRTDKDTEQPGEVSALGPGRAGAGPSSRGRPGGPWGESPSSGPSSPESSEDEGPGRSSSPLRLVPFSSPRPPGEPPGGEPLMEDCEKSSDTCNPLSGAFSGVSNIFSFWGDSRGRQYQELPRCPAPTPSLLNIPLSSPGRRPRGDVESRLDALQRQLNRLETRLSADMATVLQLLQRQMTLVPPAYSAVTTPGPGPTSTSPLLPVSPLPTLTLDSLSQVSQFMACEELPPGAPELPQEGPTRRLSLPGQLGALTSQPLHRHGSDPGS
Description: This assay determines the ability of a test compound to inhibit the tail current flowing through the human ether-a-go-go-related-gene (hERG)-encoded potassium channel.
One or two days before each experiment, the cells were detached from the tissue culture flasks with Accutase (TCS Biologicals) using standard tissue culture methods. They were then put onto glass coverslips resting in wells of a 12 well plate and covered with 2 ml of the growing media.
For each cell recorded, a glass coverslip containing the cells was placed at the bottom of a Perspex chamber containing bath solution (see below) at room temperature (~20 °C). This chamber was fixed to the stage of an inverted, phase-contrast microscope. Immediately after placing the coverslip in the chamber, bath solution was perfused into the chamber from a gravity-fed reservoir for 2 minutes at a rate of ~ 2 ml/min. After this time, perfusion was stopped.
A patch pipette made from borosilicate glass tubing (GC120F, Harvard Apparatus) using a P-97 micropipette puller (Sutter Instrument Co.) was filled with pipette solution (see hereinafter). The pipette was connected to the headstage of the patch clamp amplifier (Axopatch 200B, Axon Instruments) via a silver/silver chloride wire. The headstage ground was connected to the earth electrode. This consisted of a silver/silver chloride wire embedded in 3% agar made up with 0.85% sodium chloride.
The cell was recorded in the whole cell configuration of the patch clamp technique. Following "break-in", which was done at a holding potential of -80 mV (set by the amplifier), and appropriate adjustment of series resistance and capacitance controls, electrophysiology software (Clampex, Axon Instruments) was used to set a holding potential (-80 mV) and to deliver a voltage protocol. This protocol was applied every 15 seconds and consisted of a 1 s step to +40 mV followed by a I s step to -50 mV. The current response to each imposed voltage protocol was low pass filtered by the amplifier at 1 kHz. The filtered signal was then acquired, on line, by digitising this analogue signal from the amplifier with an analogue to digital converter. […]
The amplitude of the hERG-encoded potassium channel tail current following the step from +40 mV to -50 mV was recorded on-line by Clampex software (Axon Instruments). […]
The effect of each concentration of test compound was quantified by expressing the tail current amplitude in the presence of a given concentration of test compound as a percentage of that in the presence of vehicle.
Test compound potency (IC50) was determined by fitting the percentage inhibition values making up the concentration-effect to a four parameter Hill equation using a standard data-fitting package.

With `CC(=O)Nc1ccccc1OCC(O)CNC1CCN(Cc2ccc(Cl)cc2)CC1` (stereo not shown) [Comparison A], the pIC50 under setting [1] was 6.52.
The same measure, in the same setting: to `COc1ccc(NC(C)=O)c(OC[C@@](C)(O)CNC2CCN(Cc3ccc(Cl)cc3)CC2)c1` [Comparison B] belongs 6.52.
Still for that read-out and setting: the figure for `CC(=O)Nc1ccc(Cl)cc1OCC(O)CNC1CCN(Cc2ccc(Cl)cc2)CC1` (stereo not shown) [Comparison C] is 7.00.
As to `CC(=O)Nc1ccc(O)cc1OC[C@@](C)(O)CNC1CCN(Cc2ccc(Cl)cc2)CC1` [Example 1, 4-({(2S)-3-[2-(acetylamino)-5-hydroxyphenoxy]-2-hydroxy-2-methylpropyl}ammonio)-1-(4-chlorobenzyl)piperidinium di(2,2,2-trifluoroacetate)], the negative-log IC50 (pIC50) is 4.50.

For orientation: pIC50 means the negative decadic logarithm of the IC50, by convention in mol/L.

Source of the values: patent EP1499590B1, “Piperidine derivatives as potassium channel blockers” (AstraZeneca AB, priority 2001, dated 2003).
